From patent publication US8153589B2, “JNK3 as a target for the treatment of angiogenesis-related diseases” (The University of North Carolina at Chapel Hill, priority 2009, dated 2012)
Read-outs that look alike come from different tables or passages of the source.

Assays:
[1] = tested on: BAECs; assay: Boyden chamber migration assay; assay type: cell-based, bovine
Description: Boyden chamber assays were performed as previously described (40, 41) using a 48-well chamber apparatus (NeuroProbe, Cabin John, Md.). The lower chambers of the apparatus were filled with DMEM with or without SDF-1alpha and then covered with the collagen-coated filter and the upper chambers. Cells pretreated with or without the indicated inhibitors were then added to the upper chambers. After incubating for 6 h at 37° C., cells present on the lower surface were fixed, stained and identified with the 40× objective lens on a Nikon Eclipse TS 100 inverted microscope.
To determine whether eNOS activation is required for SDF-1α-mediated endothelial cell migration, we performed scratch-wound healing and Boyden chamber migration assays in the presence of the NOS-specific inhibitor L-NMMA (19). Confluent BAECs were pretreated for one hour with 1 mM or 5 mM L-NMMA or vehicle prior to each assay. […] Endothelial cells were transfected with 1 of 3 different bovine eNOS-specific siRNAs, or mixture of all three, and 72 hours later cell lysates were examined by western blot analysis for levels of eNOS protein.

[2] = tested on: JNK3; assay: JNK activation (phospho-JNK Western blot) in BAECs; assay type: cell-based, bovine; details: for SDF-1α-induced JNK phosphorylation in siRNA-transfected cells: BAECs, 50 ng/ml SDF-1alpha for 10 minutes
Description: (§1) Cells were harvested in lysis buffer (1% Triton X-100, 50 mM Tris, pH 7.4, 150 mM NaCl, 1 mM Na3VO4 and 0.1% protease inhibitor tablet; Roche) and clarified by centrifugation at 16,000 g. Equal amounts of proteins were incubated with a specific antibody overnight at 4° C. with gentle rotation. Protein A/G Plus-agarose beads (Santa Cruz Biotechnology, Santa Cruz, Calif.) were used to pull down the antibody complexes. Afterward, beads were washed with lysis buffer, and immune complexes were separated by SDS-PAGE. Total cell lysates were separated by SDS-PAGE and transferred to nitrocellulose membranes.
Mitogen-activated protein kinases (MAPKs), including ERK1/2 and p38, have been reported to enhance angiogenesis (20, 21). However, the role of JNK in angiogenesis remains controversial, with studies showing both positive and negative outcomes of JNK activation. In order to determine which MAPKs are involved in SDF-1α-induced endothelial cell migration, we screened the activities and expression levels of ERK1/2, p38 and JNK following treatment of BAECs with SDF-1α. […] SDF-1α activated both JNK and ERK1/2 in a dose-dependent manner (FIG. 2B). […] Protein and mRNA for all three JNK isoforms, JNK1, JNK2 and JNK3, can be found in BAECs (FIGS. 5, A&B). In order to determine which JNK protein(s) was activated by SDF-1α in these cells we used a previously described assay (22). Exogenous JNK1, JNK2 and JNK3 proteins containing Flag or GFP-epitopes were transiently expressed in BAECs and their activities were determined via western blotting with a phospho-JNK antibody following SDF-1α treatment. […] To confirm the finding that JNK3 is the only JNK entity activated by SDF-1α, we transfected cells with siRNAs for each of the JNK proteins and then tested the effect of each siRNA for the ability to suppress SDF-1α-induced JNK activation. […] Because JNK3 was the only SDF-1α-activated JNK in endothelial cells in our studies (FIG. 2C & FIG. 5, C), we consider the phospho-JNK signals in western blots with anti-phospho-JNK antibody as the signals for activated JNK3.

[3] = tested on: BAECs; assay: In vitro Matrigel angiogenesis (tube formation) assay; assay type: cell-based, bovine; details: siRNA-expressing cells
Description: Endothelial cell tube formation was analyzed with the Matrigel-based tube formation assay (40, 41). Chilled 24-well plates were coated with growth factor-reduced Matrigel (Becton Dickinson, San Jose, Calif.) that was polymerized at 37° C. for 30 min. BAECs were transfected with siRNA constructs with the Amaxa Nucleofector electroporation reagent. Three days later, cells were trypsinized, and plated at equal numbers into each Matrigel-coated well. After 18 hours of incubation in the absence or presence of SDF-1alpha, the formation of tubes was photographed (Eclipse, 10× objective, TS100Nikon). Images were quantified with ImageJ.
Endothelial cell migration is a critical step for tube formation during angiogenesis. To test the importance of JNK3 in highly ordered cell assembly processes, we examined the effect of JNK knockdown with siRNAs on the formation of capillary-like tubes in Matrigel. BAECs were transfected with JNK1 siRNA, JNK2 siRNA, JNK3 siRNA or control siRNA. After 72 hours, cells were plated on Matrigel in medium containing 50 ng/ml SDF-1α.

[4] = tested on: ERK1/2; assay: ERK1/2 activation, Western blot in BAECs; assay type: cell-based, bovine; details: L-NMMA, SDF-1α-treated BAECs
Description: as §1
Mitogen-activated protein kinases (MAPKs), including ERK1/2 and p38, have been reported to enhance angiogenesis (20, 21). However, the role of JNK in angiogenesis remains controversial, with studies showing both positive and negative outcomes of JNK activation. In order to determine which MAPKs are involved in SDF-1α-induced endothelial cell migration, we screened the activities and expression levels of ERK1/2, p38 and JNK following treatment of BAECs with SDF-1α. […] SDF-1α activated both JNK and ERK1/2 in a dose-dependent manner (FIG. 2B). […] Exogenous JNK1, JNK2 and JNK3 proteins containing Flag or GFP-epitopes were transiently expressed in BAECs and their activities were determined via western blotting with a phospho-JNK antibody following SDF-1α treatment. […]

[5] = tested on: BAECs; assay: Scratch wound healing assay; assay type: cell-based, bovine; details: L-NMMA pretreatment (1 mM or 5 mM, one hour) plus 50 ng/ml SDF-1alpha
Description: For detection of cell migration, a wound healing assay was performed as previously described (40). BAECs were grown on 35 mm wells, the monolayer was scratched with a sterile disposable rubber policeman and the edge labeled with a traced line. After injury, the cells were gently washed with normal media without serum. EC migration from the edge of the injured monolayer was quantified by measuring the area between the wound edges before and the recovered area after injury using light microscopy (Eclipse TS100, 4× objective, Nikon) and the computer program ImageJ.
To determine whether eNOS activation is required for SDF-1α-mediated endothelial cell migration, we performed scratch-wound healing and Boyden chamber migration assays in the presence of the NOS-specific inhibitor L-NMMA (19). Confluent BAECs were pretreated for one hour with 1 mM or 5 mM L-NMMA or vehicle prior to each assay. […] Similarly, cell migration in Boyden chambers was induced by SDF-1α (from 8±3 to 86±5 cells per field), but this increase in migration was inhibited by the pre-incubation of BAECs with L-NMMA (FIG. 1D). The involvement of eNOS in SDF-1α-induced endothelial cell migration was confirmed by treatment of cells with siRNAs specific for eNOS. […]

[6] = target: T1, MKP7 (Homo sapiens, UniProt Q9BY84, C244S); assay type: biochemical
T1 construct: the mutants of full-length MKP7, MKP7-C244S and MKP7-C244A; expressed in transfected cells; host or cells: HEK293T
T1 sequence (Q9BY84 1-317 C244S): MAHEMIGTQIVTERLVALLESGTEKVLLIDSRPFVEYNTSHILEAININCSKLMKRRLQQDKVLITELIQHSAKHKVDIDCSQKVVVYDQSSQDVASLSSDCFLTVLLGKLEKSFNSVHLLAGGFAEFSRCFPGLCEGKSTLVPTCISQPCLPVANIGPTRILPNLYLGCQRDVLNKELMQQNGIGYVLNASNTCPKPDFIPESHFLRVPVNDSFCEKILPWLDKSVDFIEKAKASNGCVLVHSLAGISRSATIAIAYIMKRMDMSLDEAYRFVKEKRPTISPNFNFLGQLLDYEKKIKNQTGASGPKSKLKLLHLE
Description: (§4) Flag-MKP7 protein was prepared from the cells transfected with Flag-MKP7 by immunoprecipitation using Flag beads (Sigma). The precipitate was washed twice with lysis buffer containing high salt (1 M NaCl) followed by 2 washes with the reaction buffer. In vitro phosphatase reactions were carried out at 37° C. for 1 hour in I.V.P.A buffer (20 mM Tris⊕HCl, pH7.0, 0.1 mM MgCl2, 1 mM MnCl2, 1 ┌g/┌1 BSA, 1 mM DTT in reduced samples) with 25 ng active JNK3 purified protein (Upstate). The reaction was stopped by the addition of 2× loading buffer followed by western blotting analysis with phospho-specific JNK and JNK antibodies.
(§5) To determine whether this S-nitrosylation event affected MKP7 activity, we performed an in vitro phosphatase activity analysis using activated JNK3 protein in a reaction with MKP7-concentrated cell lysates. […] The activities of these mutants were also evaluated using an in vitro phosphatase assay.

[7] = tested on: MKP7; assay type: biochemical
Description: as §4, §5

[8] = target: T1, MKP7; assay: Biotin switch assay, MKP7 S-nitrosylation by NO donors in lysates of transfected HEK293T cells; assay type: biochemical
Description: (§2) Experiments were performed following the methods previously described by Dr. Stamler's laboratory (39). Cell lysates containing Flag or Myc-tagged MKP7 protein were treated with the indicated concentrations of GSNO followed by the addition of 2 volumes of HEN buffer and freshly prepared S-methyl methanethiosulfonate (10% v/v in N,N-dimethylformamide) and SDS (25% v/v) to final concentrations of 0.1 and 2.5%, respectively. Following frequent vortexing at 50° C. for 1 hour, proteins were precipitated with 3 volumes of acetone at −20° C. for 30 min. The proteins were recovered by centrifugation at 5,000×g for 5 min, followed by gentle rinsing of the pellet with 3×1 ml acetone. The pellets were then resuspended in 240 μl of HEN buffer containing 1% SDS. The resuspended protein was precipitated, rinsed and resuspended once more. For labeling, the blocked samples were mixed with 0.1 volume of biotin-HPDP (2.5 mg/ml in Me2SO) and 0.1 volume of HEN (control) or freshly prepared sodium Ascorbic acid in HEN buffer. Labeling reactions were performed in the dark at room temperature for 1 h unless otherwise indicated. To detect an MKP7 SNO protein from cells or lysates, the labeling reaction was acetone-precipitated as previously described. The washed pellet was resuspended in 250 μl of HEN/10 (HEN diluted 10-fold into H2O) containing 1% SDS, followed by addition of 750 μl of neutralization buffer (25 mM HEPES, 100 mM NaCl, 1 mM ETDA, 1% Triton X-100, pH 7.5). This material was incubated overnight at 4° C. with 40 μl of streptavidin-agarose beads. The beads were washed with 3×1 ml of wash buffer (neutralization buffer+500 mM NaCl) and 2×1 ml of neutralization buffer. The dried beads were eluted with 50 μl of HEN/10+1%-mercaptoethanol. The eluted mixture was then analyzed by SDS-PAGE, followed by immunoblotting with anti-Flag-HRP (1:5000) or antibodies.
(§3) The preceding experiments indicate that eNOS and its downstream effector JNK3 are required for SDF-1α-induced endothelial cell migration. However, the molecular mechanisms of eNOS-dependent regulation of JNK3 activity are not intuitive. In the course of exploring various potential regulatory mechanisms, we considered the possibility that regulation of JNK3 by eNOS was determined by suppression of dephosphorylation activities. When cells were incubated with sodium orthovanadate, an inhibitor of protein tyrosine and dual-specificity protein phosphatases, JNK phosphorylation increased both under basal conditions and, most prominently, after SDF-1α treatment (FIG. 3A). […] MKP7, a member of the dual-specificity family of protein phosphatases, interacts with the JNK3 scaffold protein β-arrestin2 (25). Located within the N-terminal catalytic domain of MKP7, the Cys^244 residue is highly sensitive to oxidation due to its low pKa and this oxidation is required for decreased MKP7 activity and sustained activation of JNK3 under certain conditions (26). […] MKP7 S-nitrosylation was also detected with another NO donor-DETA NONOate; the addition of DTT blocked its nitrosylation (data not shown). To further explore the nitrosylation of MKP7 by NO donors, SNOs in MKP7 were replaced with biotin (biotin switch), and peptides generated by trypsinization were purified by avidin chromatography and analyzed by MALDI-TOF and ESI-MS/MS. […]

[9] = tested on: MKP7; assay: as above; assay type: biochemical
Description: as §2, §3

[10] = Myc-MKP7, GSNO 500 μM, 10 minutes

N#CC(=C(/N)Sc1ccccc1N)/C(C#N)=C(\N)Sc1ccccc1N [U0126]
endothelial cell migration induced by SDF-1α ([1]; 20 μM U0126 (data not shown)): decreased

Oc1c2ccccc2c2c3c(cccc13)N=N2 [SP600125]
SDF-1α-mediated endothelial cell migration ([1]; 10 μM SP600125, 50 ng/ml SDF-1alpha): 27±3 cells
SDF-1α-mediated endothelial cell migration ([1]; 50 μM SP600125, 50 ng/ml SDF-1alpha): 20±2 cells

JNK2 siRNA: AGUUGAGUCU GCCACUUGUACACUG (SEQ ID NO:5) (AGUUGAGUCUGCCACUUGUACACUG; listed as RNA, chemistry not given here)
SDF-1α-induced JNK phosphorylation in siRNA-transfected cells [2]: significantly enhanced
tube length ([3]; with 50 ng/ml SDF-1α): 504±93 μm
tube length ([3]; without SDF-1α): 121±61 μm

[Na+].[Na+].[Na+].[O]=[V]([O-])([O-])[O-] [sodium orthovanadate, reference compound]
JNK phosphorylation ([2]; Na3VO4 10, 100, 500 μM, basal and after 50 ng/ml SDF-1α): increased

CNC(=N)NCCC[C@H](N)C(=O)O [L-NMMA, reference compound]
JNK3 activation induced by SDF-1α ([2]; 0.5-5 mM L-NMMA, 50 ng/ml SDF-1alpha for 5 minutes): specifically inhibited
SDF-1α-induced increase in migration in Boyden chambers ([1]; pre-incubation with L-NMMA, 50 ng/ml SDF-1alpha): inhibited
ERK activation [4]: not affected
BAEC migration towards the wounded area [5]: 17.7±2.4%

N[C@@H](CCC(=O)N[C@@H](CSN=O)C(=O)NCC(=O)O)C(=O)O [GSNO, nitrosoglutathione]
phosphatase activity of MKP7-ΔC (C244S) [6]: essentially unchanged
MKP7 phosphatase activity [7]: markedly inhibited
phosphatase activity of MKP7-WT and MKP7-ΔC [7]: decreased dramatically
nitrosylation of MKP7-ΔC (C244S) compared to MKP7-ΔC [8]: markedly attenuated
S-nitrosylation of MKP7 [9]: S-nitrosylated
nitrosylation of MKP7-WT and MKP7-ΔC [9]: strongly nitrosylated

JNK1 siRNA: AUAACAAAUCCCUUGCCUGACUGGC (SEQ ID NO:4) (listed as RNA, chemistry not given here)
SDF-1α-induced JNK phosphorylation in siRNA-transfected cells [2]: significantly enhanced
tube length ([3]; with 50 ng/ml SDF-1α): 438±108 μm
tube length ([3]; without SDF-1α): 88±23 μm

NCCN(CCN)/[N+]([O-])=N/O [DETA NONOate]
S-nitrosylation of MKP7 [9, 10]: detected

O[C@@H](CS)[C@@H](O)CS [DTT]
S-nitrosylation of MKP7 [9, 10]: blocked
